Converted amounts (≈) assume the structure as drawn. The source made the active and inactive calls. The calls are words filed in the database; no cut-off is given here. Square brackets hold non-standard residues; d marks the D form. Peptide text beside a SMILES is read from it. Dip = N[C@H](C(=O)O)C(c1ccccc1)c1ccccc1; 2Nal = N[C@@H](Cc1ccc2ccccc2c1)C(=O)O

For orientation: MIC means the lowest concentration that inhibits growth of the organism. Usually HC50 stands for the concentration that lyses half of the red blood cells.

For data set [1], the system named is Cell membrane. Description: Membrano-lytic effect in cytoplasmic membrane of methicillin resistant Staphylococcus aureus ATCC BAA-1556 assessed as disruption by measuring propidium iodide fluorescence incubated for 1 hr by FACscan flow cytometer analysis. Particulars: DDE = dose-dependent effect.
A short description of data set [2]: Cytotoxicity against HEK293 assessed as cell viability at 250 ug/ml incubated for 24 hrs by microplate spectrophotometer analysis method relative to control. It is filed as toxicity, cell-based. The settings on record: human, HEK293 cells, at 250 µg/mL, read-out: Activity.
Data set [3] concerns HepaRG. Description: Cytotoxicity against human HPRGC10 assessed as cell viability at 250 ug/ml incubated for 24 hrs by microplate spectrophotometer analysis method relative to control. It counts as functional. Particulars: read-out: Activity.
In another data set the test system is Pseudomonas aeruginosa. Put plainly: Antibacterial activity against Pseudomonas aeruginosa ATCC 27883 incubated for 24 hrs by microtiter plate method. It counts as functional. Particulars: Pseudomonas aeruginosa, ATCC 27883, 24 h, read-out: MIC.
Data set [4] relates to Cell membrane. Description: Membrano-lytic effect in cytoplasmic membrane of Escherichia coli ATCC BAA-2452 assessed as disruption by measuring propidium iodide fluorescence incubated for 1 hr by FACscan flow cytometer analysis. Particulars: DDE = dose-dependent effect. Background: Flow cytometry measures light scatter and fluorescence of single cells or particles in a stream.

Data set [5] deals with Staphylococcus aureus. Put plainly: Bactericidal activity against methicillin resistant Staphylococcus aureus ATCC BAA-1556 assessed as time required for complete reduction of bacterial growth at 4 times MIC by counting formed colonies. It counts as functional.
For data set [6], the system named is Escherichia coli. Put plainly: Bactericidal activity against Escherichia coli ATCC BAA-2452 assessed as time required for complete reduction of bacterial growth at MIC by counting formed colonies. It is filed as functional.
Data set [7] has as its system Lipid bilayer. Description: Induction of membrane disruption in bacterial inner membrane mimic DOPC/DOPG (7:3) large unilamellar vesicles assessed as decrease in particle size of liposome at 1:1 compound to lipid ratio measured after 24 hrs by dynamic light scattering analysis. It counts as cell membranes.
The subject of data set [8] is Staphylococcus aureus. Description: Antibacterial activity against Staphylococcus aureus ATCC 29213 incubated for 24 hrs by microtiter plate method. It is filed as functional. The settings on record: Staphylococcus aureus, ATCC 29213, read-out: MIC.
A short description of data set [9]: Proteolytic stability in human plasma at 100 uM incubated for 30 mins by Q-TOF LC/MS analysis relative to control. It is filed as ADME, cell-free. Particulars: read-out: Stability.
Data set [10] deals with Cell membrane. Description: Membrano-lytic effect in cytoplasmic membrane of methicillin resistant Staphylococcus aureus ATCC BAA-1556 assessed as disruption by measuring propidium iodide fluorescence at MIC incubated for 1 hr by FACscan flow cytometer analysis.
Data set [11] is described as follows: Proteolytic stability in human plasma at 100 uM incubated for 24 hrs by Q-TOF LC/MS analysis relative to control. Particulars: read-out: Stability. It is filed as ADME, cell-free.
Data set [12] has as its system Staphylococcus aureus. Description: Bactericidal activity against methicillin resistant Staphylococcus aureus ATCC BAA-1556 assessed as time required for complete reduction of bacterial growth at MIC by counting formed colonies. It counts as functional.
Data set [13] in a line: Hemolytic activity in human RBC assessed as hemolysis incubated for 2 hrs by spectrophotometer analysis. Particulars: human red blood cells (erythrocytes). It is filed as toxicity, cell-based, Erythrocyte.
Data set [14] relates to MRC5. Description: Cytotoxicity against human MRC-5 assessed as cell viability at 250 ug/ml incubated for 24 hrs by microplate spectrophotometer analysis method. It is filed as toxicity, cell-based. Particulars: mrc5, 24 h, dose 250 µg/ml.
Data set [15] deals with Lipid bilayer. Put plainly: Membrano-lytic effect in mammalian membrane mimic DOPC/cholesterol (10:1) large unilamellar vesicles assessed as calcein leakage measured at 50 microg/ml measured upto 100 mins for every 10 mins by multimode microplate reader assay. It is filed as cell membranes. Particulars: dose 50.0 µg/ml.
Data set [16] deals with Escherichia coli. Description: Bactericidal activity against Escherichia coli ATCC BAA-2452 assessed as time required for complete reduction of bacterial growth at 4 times MIC by counting formed colonies. It counts as functional.
Data set [17] concerns Lipid bilayer. Put plainly: Membrano-lytic effect in bacterial inner membrane mimic DOPC/DOPG (7:3) large unilamellar vesicles assessed as calcein leakage measured upto 100 mins for every 10 mins by multimode microplate reader assay. Particulars: dose 5-50 µg/ml, DDE = dose-dependent effect. It counts as cell membranes.
Data set [18] has as its system Staphylococcus aureus. Description: Antibacterial activity against methicillin resistant Staphylococcus aureus ATCC BAA-1556 incubated for 24 hrs by microtiter plate method. It is filed as functional. The settings on record: Staphylococcus aureus, ATCC BAA-1556, 24 h, read-out: MIC.
Data set [19] deals with MRC5. Description: Cytotoxicity against human MRC-5 assessed as cell viability measured after 24 hrs by microplate spectrophotometer analysis. It counts as toxicity, cell-based. Particulars: mrc5, 24 h, DDE = dose-dependent effect, dose < 250 µg/ml.
The subject of data set [20] is HepaRG. Put plainly: Cytotoxicity against human HPRGC10 assessed as cell viability measured after 24 hrs by microplate spectrophotometer analysis. Particulars: dose <= 250.0 µg/ml, DDE = dose-dependent effect. It counts as functional, cell-based.
Data set [21] has as its system Escherichia coli. Put plainly: Antibacterial activity against Escherichia coli ATCC 25922 incubated for 24 hrs by microtiter plate method. The settings on record: Escherichia coli, ATCC 25922, 24 h, read-out: MIC. It counts as functional.
A further data set concerns HEK293. Description: Cytotoxicity against HEK293 assessed as cell viability measured after 24 hrs by microplate spectrophotometer analysis. It is filed as toxicity, cell-based. Particulars: human, hek293, 24 h, DDE = dose-dependent effect, dose < 250 µg/ml.

For `N=C(N)NCCC[C@H](NC(=O)[C@H](CCCNC(=N)N)NC(=O)[C@H](CCCNC(=N)N)NC(=O)[C@@H](N)CCCNC(=N)N)C(=O)N[C@@H](Cc1ccc2ccccc2c1)C(=O)N[C@@H](Cc1ccc2ccccc2c1)C(=O)N[C@@H](Cc1ccc2ccccc2c1)C(=O)O` (H-RRRR[2Nal][2Nal][2Nal]-OH), the Activity entry with Cell membrane [1] is “Dde”; in the data set with Cell membrane [4], “Dde”; in the data set on Cell membrane [10], 35%; in the data set with MRC5 [14], “Non-Toxic”; in the data set with Lipid bilayer [15], 6%; in the data set with Lipid bilayer [17] it was “Dde”. Moreover, the viability at 24 h, 250 ug/ml in [2] is 69%. In addition, the viability at 250 µg/mL with HepaRG [3] worked out at 47%. The MIC came out at 25 µg/mL (≈ 20.3 µM) with Pseudomonas aeruginosa, 6.2 µg/mL (≈ 5.02 µM) in the data set on Staphylococcus aureus [8] and 6.2 µg/mL (≈ 5.02 µM) with Staphylococcus aureus [18]. In addition, the Time in the data set on Staphylococcus aureus [5] came to 2 h; with Escherichia coli [6], 4 h; in the data set on Staphylococcus aureus [12] it was 3 h; with Escherichia coli [16] it was 2.5 h. Moreover, the outcome in the data set on Lipid bilayer [7] was Active. In addition, in data set [9], the remaining at 0.5 h, 100 µM was 62%. In addition, in data set [11], the remaining at 24 h, 100 µM stood at 32%. For the same compound, the HC50 at 2 h in data set [13] came to 130 µg/mL.

In the case of `N=C(N)NCCC[C@H](NC(=O)[C@H](CCCNC(=N)N)NC(=O)[C@@H](N)CCCNC(=N)N)C(=O)N[C@@H](CCCNC(=N)N)C(=O)N[C@H](C(=O)N[C@H](C(=O)N[C@H](C(=O)O)C(c1ccccc1)c1ccccc1)C(c1ccccc1)c1ccccc1)C(c1ccccc1)c1ccccc1` (H-RRRR[Dip][Dip][Dip]-OH), the Activity result was “Dde” in the data set on MRC5 [19]; “Dde” in the data set with Cell membrane [1]; “Dde” in the data set with Cell membrane [4]; “Dde” in the data set with HepaRG [20]; 35% in the data set with Cell membrane [10]; “Dde” with HEK293. Also, the Activity was 8% with Lipid bilayer [15] and “Dde” in the data set with Lipid bilayer [17]. For the same compound, the MIC in the data set with Pseudomonas aeruginosa is 12.5 µg/mL (≈ 9.52 µM); with Escherichia coli [21], 12.5 µg/mL (≈ 9.52 µM); in the data set on Staphylococcus aureus [8] it was 6.2 µg/mL (≈ 4.72 µM); in the data set with Staphylococcus aureus [18] it was 6.2 µg/mL (≈ 4.72 µM). Moreover, the Time with Staphylococcus aureus [5] was found to be 2 h; in the data set with Escherichia coli [6], 4 h; in the data set on Staphylococcus aureus [12], 3 h; with Escherichia coli [16], 2.5 h. In addition, the result with Lipid bilayer [7] was Active. The remaining at 0.5 h, 100 µM in data set [9] was determined as 69%. In addition, the remaining at 24 h, 100 µM in [11] was 21%. For the same compound, the HC50 at 2 h in [13] is 145 µg/mL.
